In patent US5383848A, “Iontophoretic administration of drugs” (Gensia, Inc., priority 1991, dated 1995):
Where “and” joins values, the source holds several entries; their conditions need not be identical. Equal entries are not always repeated.

Experiments:
elevated heart rate [1] = test: In vivo dog experiments: heart rate offset after iontophoretic ESA drug with pretreatment (Example A); set-up: species or system labrador dogs; conditions: for Offset Slope Component (0-5) min: 0-5 min after heart rate begins to decline; for Offset Slope Component (5-10) min: 5-10 min after decline begins; for Offset Slope Component (10-30) min: 10-30 min after decline begins; for Change in Heart Rate (peak minus baseline) / Peak Heart Rate: Table II; for Total time (startup) thru offset plateau: in words: Table IV; for Onset Slope: baseline at onset time to peak heart rate; for Decline in heart rate after ESA drug without pretreatment: control runs, hydrochloride; for Offset time: drug delivery stopped until within 20 bpm of baseline; for Offset Slope: drug shut-off to 20 bpm above baseline; for Delay: drug shut-off to start of heart rate decline; for Onset time: start of delivery to start of increase in heart rate; for Time Start Decline: time when elevated heart rate began to decline
elevated heart rate [2] = test: Additional in vivo dog experiments: dermal clearance enhancer pretreatment then arbutamine TDI (Example C); set-up: species or system labrador dogs; conditions: for CHANGE IN HEART RATE / DELAY TIME / TIME TO REACH 10% DECLINE IN HEART RATE / TIME TO REACH 20% DECLINE IN HEART RATE / TIME TO REACH 30% DECLINE IN HEART RATE / TIME TO REACH 40% DECLINE IN HEART RATE / TIME TO REACH 50% DECLINE IN HEART RATE / HALF-LIFE: single dog run, hydrochloride; for HALF-LIFE: heart rate decline
Protocol: Additional experiments were performed to study the effect of certain compositions on the offset time and dermal clearance in dogs.
In these experiments, the formulation to be tested was applied either topically or by transdermal iontophoresis (TDI) as described below.
Six labrador dogs (20 to 30 kg) were trained to lie quietly on a table. Before each experiment, three ECG electrodes (one lead) were applied on shaved areas of the back (near the front legs) to obtain the heart rate. The outer hind leg area (either right or left) was shaved prior to each experiment, with care taken not to cut or visibly damage the skin. The area was cleaned with soap and water and the skin was then […] using an alcohol swab followed by skin preparation with 3M One-Step-Prep™ tape.
Each vasodilator that was delivered by TDI used a 1.8 cm^2 electrode (Graphic Controls, Buffalo, N.Y.) containing the vasodilator in a gel at the concentrations listed in experimental methods section. In all experiments, an indifferent electrode containing a phosphate-buffered-saline gel was applied to the skin in conjunction with the electrode containing the vasodilator. Each vasodilator tested was applied for 10 minutes using a current of 0.6 mA/cm^2. During this time the heart rate was continuously recorded (at 5 second intervals) with the ESA Research System. The delivery electrodes were then removed, and any excess gel adhering to the skin was gently removed using a tissue.
Each topically applied vasodilator was applied to the skin in a volume of approximately 0.25 ml. The agent was allowed to absorb into the skin, during which time the heart rate was continuously recorded for 10 minutes using the ESA Research System.
To test if heat alone would produce sufficient vasodilation, a 60° C. hot pack was applied to the skin 10 minutes prior to drug delivery, during which time the heat rate was continuously recorded by the ESA System. Once drug delivery electrodes were applied, the heat pack was reheated and placed on top of them for the duration of the study.
The purpose of this treatment was to produce an elevated heart rate response of at least 40 beats-per-minute above baseline lasting for at least 30 minutes.
^1/ The dose (ITCA) was calculated by multiplying the applied current density (mA/cm^2) by the duration of delivery (minutes) and the drug concentration (%) and the area of the electrode (cm^2). […] The units of ITCA are mA.minutes.
The important variables for this analysis are:
1) delay between time when drug administration was stopped and start of decline in heart rate;
2) the time (minutes) to reach successive percent levels (i.e. 10, 20, 30, 40, and 50% decline) from the point of maximum change in heart rate^2.
3) the half-life (minutes) of the heart rate decline obtained from an exponential fit of the offset slope.
A combination of over-the-counter (OTC) and proprietary formulations were selected for comparison. […] Two dogs received each treatment at least one time.
The six dogs are identified in the table as BA, BB, BO, MI, PO and SA, followed by the experimental identification number. These dogs received control (no pretreatment) and five DCE pretreatment regimens.

[3] = Preclinical and clinical studies using intravenous (IV) infusion of an ESA drug; conditions: in vivo, read-out: Pharmacokinetic and pharmacodynamic half-life
Protocol: Referring to FIG. 3, dog "PO", 0.08 microgram of GP 2-121-3 per kilogram of dog body weight per minute was administered over a 7 minute period. Referring to FIG. 4, dog "BO", 0.10 microgram of GP 2-121-3per kilogram per minute was administered over a 10 minute period.

[4] = Protein binding of arbutamine to albumin in IPPSF perfusate; type: in vitro ADME; conditions: bovine, IPPSF perfusate media

In the case of `Cl.Oc1ccc(CCCCNCC(O)c2ccc(O)c(O)c2)cc1` (stereo not drawn) [Arbutamine, 1-(3,4-dihydroxy-phenyl)-2-(4-(4-hydroxyphenyl)butylamino)ethanol hydrochloride], the “Offset Slope Component (0-5) min” value (elevated heart rate [1]; listed as 1, hydrochloride) is reported as -0.40 beats per minute per minute, the “Offset Slope Component (0-5) min” value (elevated heart rate [1]; listed as 2, hydrochloride) is reported as -3.70 beats per minute per minute and the “Offset Slope Component (5-10) min” value (elevated heart rate [1]; listed as 1, hydrochloride) is reported as -0.80 beats per minute per minute. The “Offset Slope Component (5-10) min” value (elevated heart rate [1]; listed as 2, hydrochloride) was 1.70 beats per minute per minute, the “Offset Slope Component (10-30) min” value (elevated heart rate [1]; listed as 1, hydrochloride) was -0.02 beats per minute per minute and the “Offset Slope Component (10-30) min” value (elevated heart rate [1]; listed as 2, hydrochloride) was -0.50 beats per minute per minute. The “Change in Heart Rate (peak minus baseline)” value (elevated heart rate [1]; listed as 1, hydrochloride) was 56 bpm, the “Peak Heart Rate” value (elevated heart rate [1]; listed as 1, hydrochloride) was 123 bpm and the “Change in Heart Rate (peak minus baseline)” value (elevated heart rate [1]; listed as 2, hydrochloride) was 87 bpm. For the same compound, the “Peak Heart Rate” value (elevated heart rate [1]; listed as 2, hydrochloride) was 160 bpm, the “Total time (startup) thru offset plateau: in words” value (elevated heart rate [1]; listed as 1, hydrochloride) was “Never reached to w/in 20 bpm of baseline” and the “Total time (startup) thru offset plateau: in words” value (elevated heart rate [1]; listed as 2, hydrochloride) was “Never reached to w/in 20 bpm pf baseline”. The “Onset Slope” value (elevated heart rate [1]; listed as 1, hydrochloride) was 6.80 beats per minute per minute, the “Onset Slope” value (elevated heart rate [1]; listed as 2, hydrochloride) was 17.60 beats per minute per minute and the “Decline in heart rate after ESA drug without pretreatment” value (elevated heart rate [1]) was “essentially no reduction in heart rate”. For the same compound, the “Decline in heart rate after ESA drug without pretreatment” value (elevated heart rate [1]; listed as ESA™ drug) was “no decline in heart rate during the first hour”, the Offset time (elevated heart rate [1]; listed as 1, hydrochloride) was 29.00 min and the Offset time (elevated heart rate [1]; listed as 2, hydrochloride) was 39.00 min. The “Offset Slope” value (elevated heart rate [1]; listed as 1, hydrochloride) was -0.30 beats per minute per minute, the “Offset Slope” value (elevated heart rate [1]; listed as 2, hydrochloride) was -0.25 beats per minute per minute and the Delay (elevated heart rate [1]; listed as 1, hydrochloride) was 1.50 min. It also gave a Delay (elevated heart rate [1]; listed as 2, hydrochloride) of 7.00 min, an Onset time (elevated heart rate [1]; listed as 1, hydrochloride) of 9.00 min and an Onset time (elevated heart rate [1]; listed as 2, hydrochloride) of 5.00 min. The “Time Start Decline” value (elevated heart rate [1]; listed as 1, hydrochloride) was 14.00 min, the “Time Start Decline” value (elevated heart rate [1]; listed as 2, hydrochloride) was 12.50 min and the experimental half-life (elevated heart rate [2]) was 31 min. For the same compound, the “heart rate following TDI arbutamine without pretreatment” value (elevated heart rate [2]; FIGS. 3 and 4) was “prolonged elevation of heart rate”, the “CHANGE IN HEART RATE, Mean” value (elevated heart rate [2]; Table VII, mean of runs) was 74.68 BPM and the “DELAY TIME, Mean” value (elevated heart rate [2]; Table VII, mean of runs) was 7.10 min. For the same compound, the “HALF-LIFE, Mean” value (elevated heart rate [2]; Table VII, mean of runs) was 30.91 min, the “TIME TO REACH 10% DECLINE IN HEART RATE, Mean” value (elevated heart rate [2]; Table VII, mean of runs) was 10.19 min and the “TIME TO REACH 20% DECLINE IN HEART RATE, Mean” value (elevated heart rate [2]; Table VII, mean of runs) was 15.98 min. The “TIME TO REACH 30% DECLINE IN HEART RATE, Mean” value (elevated heart rate [2]; Table VII, mean of runs) was 21.96 min, the “TIME TO REACH 40% DECLINE IN HEART RATE, Mean” value (elevated heart rate [2]; Table VII, mean of runs) was 27.72 min and the “TIME TO REACH 50% DECLINE IN HEART RATE, Mean” value (elevated heart rate [2]; Table VII, mean of runs) was 31.37 min. The “CHANGE IN HEART RATE” value (elevated heart rate [2]; Table VII, listed as Control) was 52.17 BPM and 123.25 BPM and 60.00 BPM and 88.00 BPM and 87.00 BPM and 63.00 BPM and 78.80 BPM and 54.05 BPM and 88.07 BPM and 94.17 BPM and 54.44 BPM and 58.44 BPM and 77.47 BPM and 82.88 BPM and 77.08 BPM, the “DELAY TIME” value (elevated heart rate [2]; Table VII, listed as Control) was 1.57 min and 1.00 min and 60.00 min and 5.50 min and 7.00 min and 5.10 min and 3.66 min and 2.28 min and 0.00 min and 1.67 min and 3.10 min and 9.20 min and 8.54 min and 1.99 min and 1.44 min and the “TIME TO REACH 10% DECLINE IN HEART RATE” value (elevated heart rate [2]; Table VII, listed as Control) was 3.20 min and 6.24 min and 60.00 min and 7.07 min and 9.35 min and 8.80 min and 5.53 min and 4.53 min and 2.28 min and 9.66 min and 7.04 min and 10.79 min and 9.50 min and 4.00 min and 4.04 min. The “TIME TO REACH 20% DECLINE IN HEART RATE” value (elevated heart rate [2]; Table VII, listed as Control) was 4.83 min and 9.16 min and 60.00 min and 98.65 min and 11.70 min and 7.41 min and 6.79 min and 4.55 min and 19.65 min and 16.54 min and 23.38 min and 10.47 min and 5.04 min and 6.82 min, the “TIME TO REACH 30% DECLINE IN HEART RATE” value (elevated heart rate [2]; Table VII, listed as Control) was 6.46 min and 12.67 min and 60.00 min and 10.21 min and 14.16 min and 9.91 min and 9.23 min and 10.58 min and 29.56 min and 23.02 min and 13.98 min and 11.43 min and 8.54 min and 11.63 min and the “TIME TO REACH 40% DECLINE IN HEART RATE” value (elevated heart rate [2]; Table VII, listed as Control) was 19.07 min and 17.19 min and 60.00 min and 16.92 min and 18.71 min and 13.84 min and 11.73 min and 22.82 min and 29.50 min and 16.23 min and 12.39 min and 11.49 min and 13.58 min. For the same compound, the “TIME TO REACH 50% DECLINE IN HEART RATE” value (elevated heart rate [2]; Table VII, listed as Control) was 22.93 min and 21.70 min and 60.00 min and 24.25 min and 24.54 min and 25.97 min and 16.68 min and 30.00 min and 33.10 min and 18.58 min and 113.35 min and 15.32 min and 15.52 min, the “CHANGE IN HEART RATE” value (elevated heart rate [2]; Table VII, listed as control) was 56.00 BPM and the “DELAY TIME” value (elevated heart rate [2]; Table VII, listed as control) was 1.50 min. The “TIME TO REACH 10% DECLINE IN HEART RATE” value (elevated heart rate [2]; Table VII, listed as control) was 11.00 min, the “TIME TO REACH 20% DECLINE IN HEART RATE” value (elevated heart rate [2]; Table VII, listed as control) was 60.00 min and the “TIME TO REACH 30% DECLINE IN HEART RATE” value (elevated heart rate [2]; Table VII, listed as control) was 60.00 min. For the same compound, the “TIME TO REACH 40% DECLINE IN HEART RATE” value (elevated heart rate [2]; Table VII, listed as control) was 60.00 min, the “TIME TO REACH 50% DECLINE IN HEART RATE” value (elevated heart rate [2]; Table VII, listed as control) was 60.00 min and the HALF-LIFE (elevated heart rate [2]; Table VII, listed as Control) was 12.53 min and 60.00 min and 20.60 min and 13.72 min and 25.09 min and 52.48 min and 2.42 min and 12.81 min and 9.60 min. For the same compound, the HALF-LIFE (elevated heart rate [2]; Table VII, listed as control) was 60.00 min, the HALF-LIFE [3] was about 7 min and the fraction unbound [4] was 0.36.
